Reference: patent US7238669B2, “Phage-display peptides as novel antimicrobial agents against Haemophilus influenzae” (priority 2002, dated 2007)

Tests used:
Proteus [1] = assay: Growth of other bacterial species in presence of hi3/17; assay type: cell-based, Proteus mirabilis; settings: FIG. 4
Procedure: (§1) (Salmonella), Enterococcus faecialis (E. faec.), Staphylococcus aureus (S. aur.) and Pseudomonas aeruginosa (P. aeru.). One hundred and fifty μl of the test bacteria were incubated in the presence of either hi3/17, f88 unselected phage display library in sBHI broth (supplemented with 10 μg/mL heme and NAD+) or control sBHI at 37° C. The next day, the optical densities of the bacterial cultures were evaluated by direct measurement of the optical densities at OD630 nm. Dilutions of the bacteria were incubated on sBHI agar plates to determine the total number of colonies per well.

NTHi = assay: Microscopic examination of cell membrane integrity; assay type: cell-based, Haemophilus influenzae; settings: microscopic results
Enterococcus faecialis [2] = assay: Binding to bacteria via ELISA
Int-1 strain of NTHi = assay: Inhibition of Int-1 growth by phage-displayed peptides (overnight in sBHI broth, OD630 and colony counts); assay type: cell-based, Haemophilus influenzae; settings: for MIC concentration resulting in no bacterial growth: FIGS. 3A and 3B
Procedure: The next day, the optical densities of the bacterial cultures were evaluated by direct measurement of the optical densities at OD630 nm.
Int-1, a non-typeable clinical isolate, was isolated in 1991 from the blood of a child with clinical symptoms of meningitis. It is virulent in rat models and is able to survive in human serum. Kw20, a non-typeable strain, was isolated in 1954. R3001, a non-typeable clinical isolate, was isolated from a bronchial lavage of a cystic fibrosis patient. R2140, is a non-typeable clinical isolate. R538 is a Haemophilus influenzae type b ATCC strain No. 9795. E1a is a type b Haemophilus influenzae clinical isolate.

Proteus [3] = assay: Binding to bacteria via ELISA; parameters: species or system Proteus mirabilis
Enterococcus faecialis [4] = assay: Growth of other bacterial species in presence of hi3/17; assay type: cell-based; settings: FIG. 4
Procedure: as §1

Staphylococcus aureus = assay: as above; assay type: cell-based; settings: FIG. 4
Procedure: as §1

Row | Sequence | antimicrobial activity against Proteus (Proteus [1]) | effect on cell membrane integrity of NTHi (NTHi) | binding via ELISA (Enterococcus faecialis [2]) | MIC (Int-1 strain of NTHi) | bactericidal activity against Int-1 (Int-1 strain of NTHi) | greater antimicrobial activity towards Int-1 compared with Group 2 phage displayed peptides (Int-1 strain of NTHi) | MIC concentration resulting in no bacterial growth (Int-1 strain of NTHi) | binding via ELISA (Proteus [3]) | antimicrobial activity against Enterococcus faecialis (Enterococcus faecialis [4]) | inhibition of growth of Staphylococcus aureus (Staphylococcus aureus)
1 | KQRTSIRATEGCLPS [hi3/17] | no activity | altered the cell membrane integrity | binding being detectable | ~1e10 virions per μl | bactericidal | over 5 fold | 3.64×10^9 virions | binding being detectable | no activity | completely inhibit the growth
2 | VVFLSSRNSAVFTDF [fUSE5/2] |  | altered the cell membrane integrity |  |  | bactericidal |  | 2.4×10^10 virions |  |  | 
